Values of other authors, collected in patent US20100144738A1, “INHIBITORS OF C-MET AND USES THEREOF” (priority 2006, published 2010).
Counter-ions that a name gives are not always drawn. Like-named read-outs stand apart in the source and are kept apart here.

Tests used:
c-Met = c-Met (Homo sapiens, UniProt P08581); settings: single dose
Chain of c-Met (P08581 25-1390): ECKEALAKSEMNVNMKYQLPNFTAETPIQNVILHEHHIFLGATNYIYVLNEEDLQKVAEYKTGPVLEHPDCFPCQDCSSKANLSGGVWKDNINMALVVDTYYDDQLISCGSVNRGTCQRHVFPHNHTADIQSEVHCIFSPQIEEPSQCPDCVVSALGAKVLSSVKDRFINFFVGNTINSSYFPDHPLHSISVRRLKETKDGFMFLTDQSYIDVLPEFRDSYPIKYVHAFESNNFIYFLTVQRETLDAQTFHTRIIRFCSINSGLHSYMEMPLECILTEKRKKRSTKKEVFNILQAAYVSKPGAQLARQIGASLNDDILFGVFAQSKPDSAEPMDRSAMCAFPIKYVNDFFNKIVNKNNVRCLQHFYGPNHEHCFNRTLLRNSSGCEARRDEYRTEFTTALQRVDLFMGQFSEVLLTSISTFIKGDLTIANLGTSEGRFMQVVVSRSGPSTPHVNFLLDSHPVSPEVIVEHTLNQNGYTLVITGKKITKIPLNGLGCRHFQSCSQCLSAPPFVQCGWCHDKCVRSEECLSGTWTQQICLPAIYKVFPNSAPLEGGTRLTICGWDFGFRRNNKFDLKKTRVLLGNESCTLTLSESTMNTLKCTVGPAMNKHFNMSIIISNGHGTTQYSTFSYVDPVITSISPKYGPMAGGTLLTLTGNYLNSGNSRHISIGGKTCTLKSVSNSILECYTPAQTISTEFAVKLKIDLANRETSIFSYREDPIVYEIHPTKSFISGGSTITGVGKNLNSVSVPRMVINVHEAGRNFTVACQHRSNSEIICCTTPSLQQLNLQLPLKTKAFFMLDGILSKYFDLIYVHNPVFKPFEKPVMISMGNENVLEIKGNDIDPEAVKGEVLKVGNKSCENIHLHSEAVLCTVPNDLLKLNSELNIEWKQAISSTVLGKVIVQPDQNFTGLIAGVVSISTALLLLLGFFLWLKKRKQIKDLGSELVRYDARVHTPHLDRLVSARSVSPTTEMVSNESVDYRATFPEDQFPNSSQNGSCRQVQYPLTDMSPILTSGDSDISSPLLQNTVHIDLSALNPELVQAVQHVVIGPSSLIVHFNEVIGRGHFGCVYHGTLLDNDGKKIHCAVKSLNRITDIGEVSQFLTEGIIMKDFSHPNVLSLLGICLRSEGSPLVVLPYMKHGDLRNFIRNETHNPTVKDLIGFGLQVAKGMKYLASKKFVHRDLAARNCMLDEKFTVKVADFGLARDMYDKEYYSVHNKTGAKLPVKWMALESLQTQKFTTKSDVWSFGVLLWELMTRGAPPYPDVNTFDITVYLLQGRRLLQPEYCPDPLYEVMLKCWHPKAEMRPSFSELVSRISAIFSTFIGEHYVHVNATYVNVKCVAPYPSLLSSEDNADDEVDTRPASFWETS

Cc1[nH]c(/C=C2\C(=O)Nc3ccc(S(=O)(=O)Cc4c(Cl)cccc4Cl)cc32)c(C)c1C(=O)N1CCC[C@@H]1CN1CCCC1 [PHA-665752]
duration of inhibition of c-Met phosphorylation in tumor xenografts (c-Met): ≤ 12 h

Cc1ccc(NC(=O)c2ccc(CN3CCN(C)CC3)cc2)cc1Nc1nccc(-c2cccnc2)n1 [IMATINIB, imatinib mesylate]
sensitivity of mutations to imatinib (c-Met mutations; mutations Asp816Val/Phe/Tyr): resistant
sensitivity of mutations to imatinib (c-Met mutations; mutations Val560Gly, Glu839Lys, Asp820Gly): sensitive
